These results are taken from patent US7253286B2, “Nitrogen-containing aromatic derivatives” (Eisai Co., Ltd, priority 2000, dated 2007).

For assay [1], the target named is T1, VEGFR2 (Homo sapiens, UniProt P35968).
T1 construct: coding for the cytoplasmic domain, beginning with lysine 791 and including the termination codon; made in house; host or cells: Sf9 insect cells (baculovirus, pFastBacHis)
The assay is described as follows: Inhibition against VEGFR2 kinase (receptor tyrosine kinase activity, HTRF method). The class given is biochemical. As to conditions: His6-VEGFR2 cytoplasmic domain, biotin-poly(GT) substrate, ATP, 30° C. 10 minutes, read-out: IC50 (concentration required for 50% inhibition of VEGFR2 kinase activity). The source says:
Measurement of Inhibition Against Receptor Tyrosine Kinase Activity
This assay is used to determine inhibition of a test substance on tyrosine kinase activity. DNA coding for the cytoplasmic domain of VEGFR2 is obtained by total cDNA synthesis (Edwards M, International Biotechnology Lab 5(3), 19–25, 1987) or by cloning. Expression in an appropriate expression system can produce a polypeptide with tyrosine kinase activity. […] For VEGFR2 (Genbank Accession No. L04947), the 1.7 kb DNA fragment described by Terman et al. (Oncogene, 6(9), 1677–1683, 1991), coding for the cytoplasmic domain, beginning with lysine 791 and including the termination codon, was isolated from a human placental cDNA library (purchased from Clontech Laboratories, Inc.) and cloned in a Baculovirus expression vector (pFastBacHis, purchased from GIBCO BRL) The recombinant construct was transfected into insect cells (Spondoptea frugiperda9 (Sf9)) to prepare a recombinant Baculovirus. (Instructions for preparation and use of recombinant Baculovirus maybe found in standard texts, such as “Bac-To-Bac Baculovirus Expression System” (GIBCO BRL).) The cytoplasmic fragment starting from lysine 398 (FGFR1, Genbank Accession No. X52833), the cytoplasmic fragment starting from lysine 558 (PDGFRβ, Genbank Accession No. M21616) or the cytoplasmic fragment starting from lysine 974 (HGFR, Genbank Accession No. J02958) may be cloned and expressed by the same method for use in assays for other tyrosine kinases. EGFR was purchased from Sigma Co. (Product No. E-2645).
For expression of the VEGFR2 tyrosine kinase, Sf9 cells were infected with the VEGFR2 recombinant virus and collected after 48 hours. The collected cells were rinsed with ice-cooled phosphate buffered saline (PBS) and then resuspended using 20 ml of ice-cooled Lysis Buffer (50 mM Tris-HCl (pH 8.5), 5 mM 2-mercaptoethanol, 100 mM KCl, 1 mM phenylmethylsulfonyl fluoride, 1% (v/v) NP-40) per 1.5×10^8 cells. The suspension was centrifuged at 12,000 rpm for 30 minutes at 4° C. and the supernatant was obtained.
The supernatant was added to a Ni—NTA agarose column (3 ml, purchased from Qiagen) equilibrated with Buffer A {20 mM Tris-HCl (pH 8.5), 5 mM 2-mercaptoethanol, 500 mM KCl, 20 mM imidazole, 10% (v/v) glycerol}. The column was washed with 30 ml of Buffer A, and then with 6 ml of Buffer B {20 mM Tris-HCl (pH 8.5), 5 mM 2-mercaptoethanol, 1M KCl, 10% (v/v) glycerol}, and finally with 6 ml of Buffer A. After washing, it was eluted with 6 ml of Buffer C {20 mM Tris-HCl (pH8.5), 5mM2-mercaptoethanol, 100 mMKCl, 100 mM imidazole, 10% (v/v) glycerol}. The eluate was placed on a dialysis membrane (purchased from Spectrum Laboratories) and dialyzed with a dialysis buffer {20 mM Tris-HCl (pH 7.5), 10% (v/v) glycerol, 1 mM dithiothreitol, 0.1 mM Na3VO4, 0.1 mM EGTA}. After dialysis, it was supplied for SDS-electrophoresis, and the recombinant protein (His6-VEGFR2, cytoplasmic domain of VEGFR2 fused with 6 histidine residues at the N-terminus) detected at a molecular weight of approximately 100 kDa with Coumassie Brilliant Blue staining was assayed using BSA (bovine serum albumin, purchased from Sigma Co.) as the standard substance, and stored at −80° C. until use. Using the same method for the cytoplasmic domains of FGFR1, PDGFRβ and HGFR yielded respective recombinant proteins fused with 6 histidine residues at the N-termini (His6-FGFR1, His6-PDGFRβ or His6-HGFR).
The tyrosine kinase reaction was conducted as follows. […]
(In general: Time-resolved FRET reads energy transfer from a long-lived donor to a nearby acceptor.)

Assay [2] concerns Human Umbilical Vein Endothelial Cells (HUVECs). The assay is described as follows: Inhibition against invasive tube formation by vascular endothelial cells in response to stimulation by angiogenic factor mixture. The class given is cell-based. Further details: key: the number of tubes formed in the absence of the test substance was designated as +++; scored on the 5-level scale of +++, ++, +, +/−, −; scored on the 5-level scale of +++, ++, +, +/−, −; scored on the 5-level scale of +++, ++, +, +/−, −; − was assigned if absolutely no tubes formed. As to conditions: HUVEC on fibrin gel, EGF/FGF2/VEGF/HGF/TNF-α mixture, 6th day, MTT staining; for number of tubes formed in the fibrin gel (score) at 0.01 μM: test substance 0.01 μM; for number of tubes formed in the fibrin gel (score) at 0.1 μM: test substance 0.1 μM; for number of tubes formed in the fibrin gel (score) at 1.0 μM: test substance 1.0 μM. The protocol:
Inhibition Against Invasive Tube Formation by Vascular Endothelial Cells in Response to Stimulation by Angiogenic Factor Mixture
Human Umbilical Vein Endothelial Cells (HUVECs) were isolated according to a reported method (Shinseikagaku Jikken Koza [New Biochemistry Experiment Lectures], “Saibo Baiyo Gijutsu” [Cell Culturing Techniques], p.197–202), and were cultured in a 5% CO2 incubator (37° C.) using EGM-2 medium (purchased from Clonetics Corp.) until the cells reached confluency. After adding 0.4 ml of bovine fibrinogen (purchased from Sigma Co.) to the inner well of a Transwell culturing plate (purchased from Coster Inc.), it was hardened with 0.7 units/ml of thrombin (purchased from Sigma Co.). The HUVECs were recovered using trypsin-EDTA and then suspended in human endothelial serum free medium basal growth medium (hereinafter abbreviated as SFM, purchased from GIBCO BRL), and 0.4 ml of the cell suspension (1.4×10^5 cells) was seeded onto the hardened fibrin gel and cultured for approximately 4 hours in a 5% CO2 incubator (37° C.). After 4 hours, there was added to the outer chamber of the Transwell 1.5 ml of an SFM solution containing a mixture of angiogenic factors {10 ng/ml EGF (purchased from GIBCO BRL), 30 ng/ml FGF2 (purchased from GIBCO BRL), 75 ng/ml VEGF (purchased from Wako Pure Chemical Industries Co., Ltd.), 50 ng/ml HGF (purchased from R&D Co.) and 7.5 ng/ml TNF-α (purchased from Genzyme Corp.) [The concentrations of the angiogenic factors differed slightly according to the HUVEC lot.]} and a diluted test substance, and culturing was carried out in a 5% CO2 incubator (37° C.). On the 2nd and 4th days after adding the test substance, the medium was exchanged with 1.5 ml of freshly prepared SFM solution containing the angiogenic factor mixture and test substance. Upon aspirating off the culture supernatant in the inner well on the 6th day after the initial addition of the test substance, 0.4 ml of a 3.3 mg/ml MTT solution dissolved in PBS (purchased from Sigma Corp.) was added and culturing was performed for approximately 1 hour in a 5% CO2 incubator (37° C.). The number of tubes formed in the fibrin gel stained with MTT was scored based on microscope observation. Specifically, the number of tubes formed in the absence of the test substance was designated as +++, while − was assigned if absolutely no tubes formed. The number of tubes formed in the presence of the test substance was scored on the 5-level scale of +++, ++, +, +/−, − to evaluate the strength of inhibition of the test substance.

The test system is the same in assay [3]. In words: Inhibition against sandwich tube formation by vascular endothelial cells in response to stimulation by VEGF. It counts as cell-based. Particulars: HUVEC in collagen gel sandwich, stimulation by VEGF (25 ng/ml VEGF and 10 ng/ml EGF), 4th day, total tube length, read-out: IC50 (concentration required for 50% inhibition of tube formation). The method, boiled down:
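HUVECs were sandwiched between collagen gel layers in serum-free medium with 25 ng/ml VEGF plus 10 ng/ml EGF, with test substance added above the gel at 37 °C. On day 4 tubes were MTT-stained and total tube length measured by image analysis. IC50 is the concentration halving tube length relative to no-compound wells.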

T1 sequence (P35968 786-1356 limits assumed): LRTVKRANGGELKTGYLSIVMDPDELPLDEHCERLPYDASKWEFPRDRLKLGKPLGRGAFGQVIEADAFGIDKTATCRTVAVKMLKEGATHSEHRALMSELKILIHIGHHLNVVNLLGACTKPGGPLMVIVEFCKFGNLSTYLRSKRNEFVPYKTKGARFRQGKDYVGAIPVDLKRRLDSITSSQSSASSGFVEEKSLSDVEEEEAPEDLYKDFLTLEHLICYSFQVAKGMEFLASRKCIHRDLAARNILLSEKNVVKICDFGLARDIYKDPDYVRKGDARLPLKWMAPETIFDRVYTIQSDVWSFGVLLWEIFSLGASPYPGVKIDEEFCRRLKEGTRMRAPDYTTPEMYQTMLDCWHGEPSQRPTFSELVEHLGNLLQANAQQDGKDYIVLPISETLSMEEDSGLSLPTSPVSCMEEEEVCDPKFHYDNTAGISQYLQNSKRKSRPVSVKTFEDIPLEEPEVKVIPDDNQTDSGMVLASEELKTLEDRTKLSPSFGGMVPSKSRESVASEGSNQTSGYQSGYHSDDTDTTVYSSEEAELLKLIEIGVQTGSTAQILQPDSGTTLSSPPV

With `COCCOc1cc2nccc(Oc3ccc(NC(=O)Nc4ccc(F)cc4)cc3)c2cc1C#N` [Example 10, N-(4-(6-cyano-7-(2-methoxyethoxy)-4-quinolyl)oxyphenyl)-N′-(4-fluorophenyl)urea], the IC50 in assay [1] turned out to be 4.9 nM.

With `COCCOc1cc2nccc(Oc3ccc(NC(=O)Nc4cccc(OC)c4)cc3)c2cc1C#N` [Example 14, N-(4-(6-Cyano-7-(2-methoxyethoxy)-4-quinolyl)oxyphenyl)-N′-(3-methoxyphenyl)urea], the IC50 in assay [1] turned out to be 2.7 nM.

Consider `CS(=O)(=O)c1cccc(NC(=O)Nc2ccc(Oc3ccnc4cc(OCCCN5CCOCC5)c(C#N)cc34)cc2)c1` [Example 74, N-(4-(6-Cyano-7-(3-(4-morpholino)propoxy)-4-quinolyl)oxyphenyl)-N′-(3-(methylsulfonyl)phenyl)urea], for which, in assay [2], the “number of tubes formed in the fibrin gel (score) at 0.01 μM” value (“number of tubes formed … at 0.01 μM” for short) is recorded as “++”, the “number of tubes formed in the fibrin gel (score) at 0.1 μM” value (from here on “number of tubes formed … at 0.1 μM”) is “−” and the “number of tubes formed in the fibrin gel (score) at 1.0 μM” value (“number of tubes formed … at 1.0 μM” for short) is “−”. For the same compound, in assay [3], the IC50 amounted to 5.9 nM.

As to `CCN(CC)CCCOc1cc2nccc(Oc3ccc(NC(=O)Nc4ccccc4)cc3)c2cc1C#N` [Example 75, N-(4-(6-Cyano-7-(3-(diethylamino)propoxy)-4-quinolyloxy)phenyl)-N′-phenylurea], in assay [2], the “number of tubes formed … at 0.01 μM” value is “+++”, the “number of tubes formed … at 0.1 μM” value is “+/−” and the “number of tubes formed … at 1.0 μM” value was “−”. Besides, the IC50 in assay [3] was 1.4 nM.

Regarding `N#Cc1cc2c(Oc3ccc(NC(=O)Nc4ccc(F)cc4F)c(F)c3)ccnc2cc1OCc1ccccc1` [Example 81, N-(4-(6-Cyano-7-benzyloxy-4-quinolyl)oxy-2-fluorophenyl)-N′-(2,4-difluorophenyl)urea], in assay [2], the “number of tubes formed … at 0.01 μM” value is “++”, the “number of tubes formed … at 0.1 μM” value is “−” and the “number of tubes formed … at 1.0 μM” value is recorded as “−”. In assay [3], the IC50 was found to be 1.8 nM.

As to `CCN(CC)CCOc1ccc(-c2cc3c(Oc4ccc(NC(=O)NC5CC5)c(Cl)c4)ncnc3[nH]2)cc1` [Example 153, 1-(2-Chloro-4-{6-[4-(2-diethylaminoethoxy)-phenyl]-7H-pyrrolo[2,3-d]pyrimidin-4-yloxy}phenyl)-3-cyclopropylurea], in assay [2], the “number of tubes formed … at 0.01 μM” value was “+/−”, the “number of tubes formed … at 0.1 μM” value is given as “−” and the “number of tubes formed … at 1.0 μM” value is given as “−”. Further, the IC50 in assay [3] turned out to be 0.02 nM.

For `O=C(CCCN1CCC(O)CC1)Nc1cc(Oc2ccc3c(ccn3C(=O)Nc3ccccc3)c2)ccn1` [Example 189, N1-Phenyl-5-[(2-{[4-(4-hydroxypiperidino)butanoyl]amino}-4-pyridyl)oxy]-1H-1-indolecarboxamide], in assay [2], the “number of tubes formed … at 0.01 μM” value is reported as “+/−”, the “number of tubes formed … at 0.1 μM” value was “−” and the “number of tubes formed … at 1.0 μM” value is given as “−”. The IC50 in assay [3] turned out to be 0.3 nM.

In the case of `CCN(CC)CCCOc1cc2nccc(Oc3ccc4c(ccn4C(=O)NC4CC4)c3)c2cc1C#N` [Example 298, 5-[6-Cyano-7-(3-diethylaminopropoxy)quinolin-4-yloxy]indole-1-carboxylic acid cyclopropylamide], in assay [2], the “number of tubes formed … at 0.01 μM” value is on record as “+/−”, the “number of tubes formed … at 0.1 μM” value is given as “−” and the “number of tubes formed … at 1.0 μM” value is listed as “−”. In assay [3], the IC50 turned out to be 0.7 nM.

As to `COc1cc2nccc(Oc3ccc(NC(=O)NC4CC4)c(Cl)c3)c2cc1C(N)=O` [Example 368, 4-(3-Chloro-4-(cyclopropylaminocarbonyl)aminophenoxy)-7-methoxy-6-quinolinecarboxamide], in assay [2], the “number of tubes formed … at 0.01 μM” value was “−”, the “number of tubes formed … at 0.1 μM” value is “−” and the “number of tubes formed … at 1.0 μM” value was “−”. The IC50 in assay [3] turned out to be 5.4 nM.

Turning to `COc1cc2nccc(Oc3ccc(NC(=O)NC4CC4)c(Cl)c3)c2cc1C(=O)NCCF` [Example 415, N6-(2-Fluoroethyl)-4-(3-chloro-4-(((cyclopropylamino)carbonyl)amino)phenoxy)-7-methoxy-6-quinolinecarboxamide], in assay [2], the “number of tubes formed … at 0.01 μM” value is given as “+/−”, the “number of tubes formed … at 0.1 μM” value is reported as “−” and the “number of tubes formed … at 1.0 μM” value was “−”. Further, the IC50 in assay [3] is 3.8 nM.

Regarding `CN1CCC(COc2cc3nccc(Oc4ccc(NC(=O)NC5CC5)c(Cl)c4)c3cc2C#N)CC1` [Example 422, N-(2-Chloro-4-((6-cyano-7-((1-methyl-4-piperidyl)methoxy)-4-quinolyl)oxy)phenyl)-N′-cyclopropylurea], in assay [2], the “number of tubes formed … at 0.01 μM” value is “+”, the “number of tubes formed … at 0.1 μM” value is listed as “−” and the “number of tubes formed … at 1.0 μM” value is on record as “−”. Also, in assay [3], the IC50 is 4.8 nM.
